Publication PMC5218480 (PLoS ONE, 2017)

System: MV-4-11 cells
Experiment: Gene expression microarray analysis (Affymetrix PrimeView) and GSEA
Format: cell-based, human
Design: RFU PODN (11730768_x_at) / Fold change /veh PODN (11730768_x_at) / RFU LINC00158 (11744669_a_at) / Fold change /veh LINC00158 (11744669_a_at) / RFU DUSP10 (11751237_a_at) / Fold change /veh DUSP10 (11751237_a_at) / RFU ID3 (11757404_x_at) / Fold change /veh ID3 (11757404_x_at) / RFU PLEKHG5 (11737974_s_at) / Fold change /veh PLEKHG5 (11737974_s_at) / RFU LRRC4B (11730491_at) / Fold change /veh LRRC4B (11730491_at) / RFU GIMAP4 (11747438_a_at) / Fold change /veh GIMAP4 (11747438_a_at) / RFU KRT8 (11758183_x_at) / Fold change /veh KRT8 (11758183_x_at) / RFU CNN1 (11734310_a_at) / Fold change /veh CNN1 (11734310_a_at) / RFU VPS37D (11726825_at) / Fold change /veh VPS37D (11726825_at) / RFU C10orf10 (11716522_x_at) / Fold change /veh C10orf10 (11716522_x_at) / RFU KIR2DL2 /// KIR2DL4 /// KIR2DL5A /// KIR2DL5B /// KIR2DS1 /// KIR2DS2 /// KIR2DS3 /// KIR2DS4 /// KIR3DL3 /// KIR3DL3 /// KIR3DS1 (11738374_at) / Fold change /veh KIR2DL2 /// KIR2DL4 /// KIR2DL5A /// KIR2DL5B /// KIR2DS1 /// KIR2DS2 /// KIR2DS3 /// KIR2DS4 /// KIR3DL3 /// KIR3DL3 /// KIR3DS1 (11738374_at) / RFU C1QL1 (11718748_at) / Fold change /veh C1QL1 (11718748_at) / RFU TMPRSS4 (11747572_a_at) / Fold change /veh TMPRSS4 (11747572_a_at) / RFU HAMP (11756126_x_at) / Fold change /veh HAMP (11756126_x_at) / RFU RNFT2 (11725882_a_at) / Fold change /veh RNFT2 (11725882_a_at) / RFU NR4A2 (11747474_a_at) / Fold change /veh NR4A2 (11747474_a_at) / RFU ABCC12 (11746883_a_at) / Fold change /veh ABCC12 (11746883_a_at) / RFU TMEM136 (11760407_x_at) / Fold change /veh TMEM136 (11760407_x_at) / RFU CLDN22 /// WWC2 (11732394_at) / Fold change /veh CLDN22 /// WWC2 (11732394_at) / RFU HLA-DPB1 (11760878_x_at) / Fold change /veh HLA-DPB1 (11760878_x_at) / RFU SPINT1 (11716480_a_at) / Fold change /veh SPINT1 (11716480_a_at) / RFU GAP43 (11754022_s_at) / Fold change /veh GAP43 (11754022_s_at) / RFU A4GNT (11735810_at) / Fold change /veh A4GNT (11735810_at) / RFU PRB3 (11715151_x_at) / Fold change /veh PRB3 (11715151_x_at) / RFU TUBB4B (11761932_at) / Fold change /veh TUBB4B (11761932_at) / RFU CAPN14 (11732068_a_at) / Fold change /veh CAPN14 (11732068_a_at) / RFU TMCC2 (11721928_a_at) / Fold change /veh TMCC2 (11721928_a_at) / RFU IRGQ (11745062_a_at) / Fold change /veh IRGQ (11745062_a_at) / RFU FAM174B (11720279_a_at) / Fold change /veh FAM174B (11720279_a_at) / RFU TMPRSS4 (11748680_a_at) / Fold change /veh TMPRSS4 (11748680_a_at) / RFU FAM212B (11763350_a_at) / Fold change /veh FAM212B (11763350_a_at) / RFU PLEKHG5 (11743358_a_at) / Fold change /veh PLEKHG5 (11743358_a_at) / RFU ZSCAN30 (11745921_a_at) / Fold change /veh ZSCAN30 (11745921_a_at) / RFU CMKLR1 (11741424_a_at) / Fold change /veh CMKLR1 (11741424_a_at) / RFU LOC101060620 /// MAPK8IP1 (11723275_at) / Fold change /veh LOC101060620 /// MAPK8IP1 (11723275_at) / RFU SPTSSB (11747773_x_at) / Fold change /veh SPTSSB (11747773_x_at) / RFU PRSS12 (11739890_at) / Fold change /veh PRSS12 (11739890_at) / RFU BIN1 (11741810_x_at) / Fold change /veh BIN1 (11741810_x_at) / RFU WNT11 (11732464_a_at) / Fold change /veh WNT11 (11732464_a_at) / RFU C10orf10 (11716521_a_at) / Fold change /veh C10orf10 (11716521_a_at) / RFU C5orf56 (11738089_at) / Fold change /veh C5orf56 (11738089_at) / RFU CYB561 (11721691_x_at) / Fold change /veh CYB561 (11721691_x_at) / RFU ANKRD19P (11752326_a_at) / Fold change /veh ANKRD19P (11752326_a_at) / RFU OR2T12 /// OR2T33 /// OR2T8 (11738714_s_at) / Fold change /veh OR2T12 /// OR2T33 /// OR2T8 (11738714_s_at) / RFU VCAN (11748164_a_at) / Fold change /veh VCAN (11748164_a_at) / RFU JSRP1 (11732532_at) / Fold change /veh JSRP1 (11732532_at) / RFU KRTAP10-11 (11738290_x_at) / Fold change /veh KRTAP10-11 (11738290_x_at) / RFU MYO3A (11730013_a_at) / Fold change /veh MYO3A (11730013_a_at) / RFU EBF3 (11725865_a_at) / Fold change /veh EBF3 (11725865_a_at) / RFU CAMK2N1 (11719241_x_at) / Fold change /veh CAMK2N1 (11719241_x_at) / RFU C5orf56 (11738088_a_at) / Fold change /veh C5orf56 (11738088_a_at) / RFU OLFML3 (11715873_a_at) / Fold change /veh OLFML3 (11715873_a_at) / RFU LOC100653217 /// NTM (11731650_a_at) / Fold change /veh LOC100653217 /// NTM (11731650_a_at) / RFU MAPK11 (11762145_a_at) / Fold change /veh MAPK11 (11762145_a_at) / RFU FIZ1 (11724087_x_at) / Fold change /veh FIZ1 (11724087_x_at) / RFU OASL (11726364_x_at) / Fold change /veh OASL (11726364_x_at) / RFU SOX15 (11748057_x_at) / Fold change /veh SOX15 (11748057_x_at) / RFU CD79A (11719716_a_at) / Fold change /veh CD79A (11719716_a_at) / RFU HIST1H1D (11736915_at) / Fold change /veh HIST1H1D (11736915_at) / RFU CASKIN2 (11723855_a_at) / Fold change /veh CASKIN2 (11723855_a_at) / RFU LOC730098 (11760151_x_at) / Fold change /veh LOC730098 (11760151_x_at) / RFU OR4N2 (11742367_at) / Fold change /veh OR4N2 (11742367_at) / RFU PRRT2 (11749266_a_at) / Fold change /veh PRRT2 (11749266_a_at) / RFU SNX32 (11753110_a_at) / Fold change /veh SNX32 (11753110_a_at) / RFU CDHR5 (11726645_a_at) / Fold change /veh CDHR5 (11726645_a_at) / RFU RCAN1 (11760418_a_at) / Fold change /veh RCAN1 (11760418_a_at) / RFU FAM167A (11723789_a_at) / Fold change /veh FAM167A (11723789_a_at) / RFU FAM26E (11764081_at) / Fold change /veh FAM26E (11764081_at) / RFU ISYNA1 (11749810_s_at) / Fold change /veh ISYNA1 (11749810_s_at) / RFU ACY1 (11761880_at) / Fold change /veh ACY1 (11761880_at) / RFU 11764098_at / Fold change /veh 11764098_at / RFU SAMD14 (11745864_x_at) / Fold change /veh SAMD14 (11745864_x_at) / RFU NPB (11741838_a_at) / Fold change /veh NPB (11741838_a_at) / RFU TMPRSS6 (11731388_a_at) / Fold change /veh TMPRSS6 (11731388_a_at) / RFU KRTAP10-2 (11738614_at) / Fold change /veh KRTAP10-2 (11738614_at) / RFU ARHGAP8 /// PRR5-ARHGAP8 (11727945_x_at) / Fold change /veh ARHGAP8 /// PRR5-ARHGAP8 (11727945_x_at) / RFU KRTAP5-7 /// NADSYN1 (11734609_at) / Fold change /veh KRTAP5-7 /// NADSYN1 (11734609_at) / RFU RASL12 (11751679_a_at) / Fold change /veh RASL12 (11751679_a_at) / RFU CDKN2B (11736163_a_at) / Fold change /veh CDKN2B (11736163_a_at) / RFU PRF1 (11729649_at) / Fold change /veh PRF1 (11729649_at) / RFU, ZNF638 /// ZNF638-IT1 / Fold change vs veh, ZNF638 /// ZNF638-IT1 / RFU, PANK3 / Fold change vs veh, PANK3 / RFU, SH3YL1 / Fold change vs veh, SH3YL1 / RFU, ZEB2 / Fold change vs veh, ZEB2 / RFU, NRIP1 / Fold change vs veh, NRIP1 / RFU, PTTG1IP / Fold change vs veh, PTTG1IP / RFU, CAPN2 / Fold change vs veh, CAPN2 / RFU, MED14 / Fold change vs veh, MED14 / RFU, SNORA58 / Fold change vs veh, SNORA58 / RFU, C1orf63 / Fold change vs veh, C1orf63 / RFU, LRRFIP1 / Fold change vs veh, LRRFIP1 / RFU, NDUFAF7 / Fold change vs veh, NDUFAF7 / RFU, SLC12A2 / Fold change vs veh, SLC12A2 / RFU, IBTK / Fold change vs veh, IBTK / RFU, ESF1 / Fold change vs veh, ESF1 / Fold change vs veh, TMEM50B / RFU, TAOK1 / Fold change vs veh, TAOK1 / RFU, ACBD3 / Fold change vs veh, ACBD3 / RFU, TMA16 / Fold change vs veh, TMA16 / RFU, RWDD3 / Fold change vs veh, RWDD3 / RFU, BCAT1 / Fold change vs veh, BCAT1 / RFU, EDEM3 / Fold change vs veh, EDEM3 / RFU, TMEM33 / Fold change vs veh, TMEM33 / RFU, WDR75 / Fold change vs veh, WDR75 / RFU, AHCTF1 / Fold change vs veh, AHCTF1 / RFU, TFRC / Fold change vs veh, TFRC / RFU, ZDHHC17 / Fold change vs veh, ZDHHC17 / RFU, NOM1 / Fold change vs veh, NOM1 / RFU, ARL8B / Fold change vs veh, ARL8B / RFU, ZBTB11 / Fold change vs veh, ZBTB11 / RFU, TAMM41 / Fold change vs veh, TAMM41 / RFU, KIAA1704 /// LOC100996395 / Fold change vs veh, KIAA1704 /// LOC100996395 / RFU, ING1 / Fold change vs veh, ING1 / RFU, TRMT61B / Fold change vs veh, TRMT61B / RFU, FUBP3 / Fold change vs veh, FUBP3 / RFU, TP53 / Fold change vs veh, TP53 / RFU, TNKS2 / Fold change vs veh, TNKS2 / RFU, ZFP14 / Fold change vs veh, ZFP14 / RFU, ACTR2 / Fold change vs veh, ACTR2 / RFU, PPP3R1 / Fold change vs veh, PPP3R1 / RFU, PIK3R1 / Fold change vs veh, PIK3R1 / RFU, HNRNPA1 / Fold change vs veh, HNRNPA1 / RFU, RNF170 / Fold change vs veh, RNF170 / RFU, ZNF28 / Fold change vs veh, ZNF28 / RFU, RNGTT / Fold change vs veh, RNGTT / RFU, OGT / Fold change vs veh, OGT / RFU, BRD1 / Fold change vs veh, BRD1 / RFU, MARS / Fold change vs veh, MARS / RFU, ZNF655 / Fold change vs veh, ZNF655 / RFU, FAHD1 / Fold change vs veh, FAHD1 / RFU, BDP1 / Fold change vs veh, BDP1 / RFU, LRRCC1 / Fold change vs veh, LRRCC1 / RFU, ARID1A / Fold change vs veh, ARID1A / RFU, ZNF146 / Fold change vs veh, ZNF146 / RFU, ZNF330 / Fold change vs veh, ZNF330 / RFU, GPN3 / Fold change vs veh, GPN3 / RFU, C9orf123 / Fold change vs veh, C9orf123 / RFU, N4BP2L2 / Fold change vs veh, N4BP2L2 / RFU, ARFIP1 / Fold change vs veh, ARFIP1 / RFU, FAM179B / Fold change vs veh, FAM179B / RFU, BCL10 / Fold change vs veh, BCL10 / RFU, UHRF1BP1L / Fold change vs veh, UHRF1BP1L / RFU, BET1 / Fold change vs veh, BET1 / RFU, CNOT2 / Fold change vs veh, CNOT2 / RFU, ZNF268 / Fold change vs veh, ZNF268 / Fold change vs veh, ZNF507 / RFU, DGCR2 / Fold change vs veh, DGCR2 / RFU, WDSUB1 / Fold change vs veh, WDSUB1 / Fold change vs veh, HSP90B1 /// MIR3652 / RFU, ADSS / Fold change vs veh, ADSS / RFU, GK / Fold change vs veh, GK / RFU, ZNF148 / Fold change vs veh, ZNF148 / RFU, TAF9 / Fold change vs veh, TAF9 / RFU, SLC1A5 / Fold change vs veh, SLC1A5 / RFU, SLMO2 / Fold change vs veh, SLMO2 / RFU, ABCC4 / Fold change vs veh, ABCC4 / RFU, LOC101060439 /// RAP1B / Fold change vs veh, LOC101060439 /// RAP1B / RFU, RFX7 / Fold change vs veh, RFX7 / RFU, GTPBP10 / Fold change vs veh, GTPBP10 / RFU, CNEP1R1 / Fold change vs veh, CNEP1R1 / RFU, BIVM-ERCC5 /// ERCC5 / Fold change vs veh, BIVM-ERCC5 /// ERCC5 / RFU, ILF3 / Fold change vs veh, ILF3 / RFU 11762660_at / Fold change /veh 11762660_at / RFU VCAN (11757783_s_at) / Fold change /veh VCAN (11757783_s_at) / RFU DDX43 (11728927_at) / Fold change /veh DDX43 (11728927_at) / RFU KRT8 (11758188_x_at) / Fold change /veh KRT8 (11758188_x_at) / RFU NKD1 (11759106_at) / Fold change /veh NKD1 (11759106_at) / RFU SRD5A1 (11742802_a_at) / Fold change /veh SRD5A1 (11742802_a_at) / RFU TPSAB1 /// TPSB2 (11721975_s_at) / Fold change /veh TPSAB1 /// TPSB2 (11721975_s_at) / RFU GSTM3 (11746129_a_at) / Fold change /veh GSTM3 (11746129_a_at) / RFU IL23R (11737362_x_at) / Fold change /veh IL23R (11737362_x_at) / RFU TMEM51 (11727254_a_at) / Fold change /veh TMEM51 (11727254_a_at) / RFU PIWIL2 (11732686_x_at) / Fold change /veh PIWIL2 (11732686_x_at) / RFU ORM1 (11744905_x_at) / Fold change /veh ORM1 (11744905_x_at) / RFU CCDC152 (11743942_at) / Fold change /veh CCDC152 (11743942_at) / RFU ECM1 (11717891_a_at) / Fold change /veh ECM1 (11717891_a_at) / RFU IL23R (11748794_a_at) / Fold change /veh IL23R (11748794_a_at) / RFU TNFAIP8L3 (11732012_x_at) / Fold change /veh TNFAIP8L3 (11732012_x_at) / RFU MBOAT4 (11741988_at) / Fold change /veh MBOAT4 (11741988_at) / RFU 11764193_at / Fold change /veh 11764193_at / RFU TMEM53 (11763286_at) / Fold change /veh TMEM53 (11763286_at) / RFU MAGEB2 (11727129_at) / Fold change /veh MAGEB2 (11727129_at) / RFU TMEM200A (11744735_a_at) / Fold change /veh TMEM200A (11744735_a_at) / RFU CCDC152 (11751479_a_at) / Fold change /veh CCDC152 (11751479_a_at) / RFU FAM211A (11726209_a_at) / Fold change /veh FAM211A (11726209_a_at) / RFU RGS16 (11746705_a_at) / Fold change /veh RGS16 (11746705_a_at) / RFU VCAN (11755009_s_at) / Fold change /veh VCAN (11755009_s_at) / RFU RHOB (11743442_s_at) / Fold change /veh RHOB (11743442_s_at) / RFU RGS16 (11720943_a_at) / Fold change /veh RGS16 (11720943_a_at) / RFU RGS16 (11720944_at) / Fold change /veh RGS16 (11720944_at) / RFU, VPS4B / Fold change vs veh, VPS4B / RFU, CREB1 / Fold change vs veh, CREB1 / RFU, DNAJC13 / Fold change vs veh, DNAJC13 / RFU, GNAQ / Fold change vs veh, GNAQ / RFU, CDK5R1 / Fold change vs veh, CDK5R1 / RFU, ZRANB3 / Fold change vs veh, ZRANB3 / RFU, CUL4A / Fold change vs veh, CUL4A / RFU, CCNY / Fold change vs veh, CCNY / RFU, UFL1 / Fold change vs veh, UFL1 / RFU, COG3 / Fold change vs veh, COG3 / RFU, DIAPH2 / Fold change vs veh, DIAPH2 / RFU, SKA2 / Fold change vs veh, SKA2 / RFU, AFF3 / Fold change vs veh, AFF3 / RFU, LMF1 / Fold change vs veh, LMF1 / RFU, IPO11 / Fold change vs veh, IPO11 / RFU, DFFB / Fold change vs veh, DFFB / RFU, FOXP1 / Fold change vs veh, FOXP1 / RFU, CARD8 / Fold change vs veh, CARD8 / RFU, STRN3 / Fold change vs veh, STRN3 / RFU, ADK / Fold change vs veh, ADK / RFU, RASSF2 / Fold change vs veh, RASSF2 / RFU, WIPF1 / Fold change vs veh, WIPF1 / RFU, LARP1B / Fold change vs veh, LARP1B / RFU, RASA1 / Fold change vs veh, RASA1 / RFU, RB1 / Fold change vs veh, RB1 / RFU, PPFIA1 / Fold change vs veh, PPFIA1 / RFU, MAT2A / Fold change vs veh, MAT2A / RFU, CCT5 / Fold change vs veh, CCT5 / RFU, WDR92 / Fold change vs veh, WDR92 / RFU, CUX1 / Fold change vs veh, CUX1 / RFU, TTC7A / Fold change vs veh, TTC7A / RFU, TMEM135 / Fold change vs veh, TMEM135 / RFU, DEPTOR / Fold change vs veh, DEPTOR / RFU, CPM / Fold change vs veh, CPM / RFU, DNAJB6 / Fold change vs veh, DNAJB6 / RFU, CACNA2D3 / Fold change vs veh, CACNA2D3 / RFU, DTX4 / Fold change vs veh, DTX4 / RFU, TFCP2 / Fold change vs veh, TFCP2 / RFU, GMCL1 /// GMCL1P1 / Fold change vs veh, GMCL1 /// GMCL1P1 / RFU, AEBP2 / Fold change vs veh, AEBP2 / RFU, SNHG1 /// SNORD22 /// SNORD25 /// SNORD26 /// SNORD27 /// SNORD28 /// SNORD29 /// SNORD31 / Fold change vs veh, SNHG1 /// SNORD22 /// SNORD25 /// SNORD26 /// SNORD27 /// SNORD28 /// SNORD29 /// SNORD31 / Fold change (Aza/veh), C12orf56 (ProbeSet 11735607_a_at) / Fold change (ACY-1035/veh), C12orf56 (ProbeSet 11735607_a_at) / Fold change (Aza/veh), FGFR1OP (ProbeSet 11751329_s_at) / Fold change (ACY-1035/veh), FGFR1OP (ProbeSet 11751329_s_at) / Fold change (Aza/veh), VPS36 (ProbeSet 11739960_a_at) / Fold change (ACY-1035/veh), VPS36 (ProbeSet 11739960_a_at) / RFU SYPL1 (11715823_x_at) / Fold change /veh SYPL1 (11715823_x_at) / RFU IGFBP7 (11715501_s_at) / Fold change /veh IGFBP7 (11715501_s_at) / RFU REEP3 (11722064_at) / Fold change /veh REEP3 (11722064_at) / RFU IGLL1 (11728026_x_at) / Fold change /veh IGLL1 (11728026_x_at): dose or concentration left out as unconfirmed
Details: ProbeSet 11740528_a_at; LIST D

Nc1ccc(-c2cccs2)cc1NC(=O)c1ccc2c(c1)cc(C1CC1)n2CCN1CCOCC1 [ACY-1035]
RFU, AFF3: 703.28 RFU
